Source: PubChem BioAssay AID330 (DTP/NCI, 2004)
Where “and” joins values, the source holds several entries; their conditions need not be identical. Identical values can stand only once. Toxic doses and inconclusive results are not listed.

Tested on: P388 leukemia ip, CD2F1 mice, survival T/C
Assay: NCI In Vivo Anticancer Drug Screen. Data for tumor model P388 Leukemia (intraperitoneal) in CD2F1 (CDF1) mice
Details: endpoint: median survival time, higher = longer survival
How it was run: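 Mice carrying the transplanted tumor received test compound or vehicle. Survival was recorded in each group, and the value is the treated-group measurement divided by that of the vehicle-treated control group.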

[1] = dose: 400.0 mg/kg/injection, schedule: Q04DX002 (ip), vehicle: saline with Tween-80
[2] = dose: 120.0 mg/kg/injection, schedule: Q01DX005 (ip), vehicle: saline with Tween-80
[3] = dose: 240.0 mg/kg/injection, schedule: Q01DX005 (ip), vehicle: saline with Tween-80
[4] = dose: 25.0 mg/kg/injection, schedule: Q01DX001 (ip), vehicle: saline with Tween-80
[5] = dose: 50.0 mg/kg/injection, schedule: Q01DX001 (ip), vehicle: saline with Tween-80
[6] = dose: 100.0 mg/kg/injection, schedule: Q01DX001 (ip), vehicle: saline with Tween-80
[7] = dose: 50.0 mg/kg/injection, schedule: Q01DX009 (ip), vehicle: saline with Tween-80
[8] = dose: 100.0 mg/kg/injection, schedule: Q01DX009 (ip), vehicle: saline with Tween-80
[9] = dose: 50.0 mg/kg/injection, schedule: Q01DX005 (ip), vehicle: saline with Tween-80
[10] = dose: 100.0 mg/kg/injection, schedule: Q01DX005 (ip), vehicle: saline with Tween-80
[11] = dose: 200.0 mg/kg/injection, schedule: Q01DX005 (ip), vehicle: saline with Tween-80
[12] = dose: 50.0 mg/kg/injection, schedule: Q01DX009 (ip), vehicle: saline
[13] = dose: 100.0 mg/kg/injection, schedule: Q01DX009 (ip), vehicle: saline
[14] = dose: 200.0 mg/kg/injection, schedule: Q01DX009 (ip), vehicle: saline

In the case of `CCC1=C[C@H]2CN(CCc3c([nH]c4cc(Br)ccc34)[C@@](C(=O)OC)(c3cc4c(cc3OC)N(C)[C@H]3[C@@](O)(C(=O)OC)[C@H](OC(C)=O)[C@]5(CC)C=CCN6CC[C@]43[C@@H]65)C2)C1`, the T/C (dose: 1.0 mg/kg/injection, schedule: Q01DX001 (ip), vehicle: water) was 113 % of control, the T/C (dose: 2.0 mg/kg/injection, schedule: Q01DX001 (ip), vehicle: water) was 115 % of control and the T/C (dose: 3.9 mg/kg/injection, schedule: Q01DX001 (ip), vehicle: water) was 118 % of control. For the same compound, the T/C (dose: 4.0 mg/kg/injection, schedule: Q01DX001 (ip), vehicle: water) was 122 % of control, the T/C (dose: 6.5 mg/kg/injection, schedule: Q01DX001 (ip), vehicle: water) was 119 % of control and the T/C (dose: 16.0 mg/kg/injection, schedule: Q01DX001 (ip), vehicle: water) was 153 % of control. The T/C (dose: 18.0 mg/kg/injection, schedule: Q01DX001 (ip), vehicle: water) was 169 % of control, the T/C (dose: 30.0 mg/kg/injection, schedule: Q01DX001 (ip), vehicle: water) was 173 % of control and the T/C (dose: 32.0 mg/kg/injection, schedule: Q01DX001 (ip), vehicle: water) was 185 % of control.
With `C=Cn1c([N+](=O)[O-])cnc1/C=C/c1ccc(C(=O)NCCO)cc1` the T/C (dose: 100.0 mg/kg/injection, schedule: Q04DX002 (ip), vehicle: saline with Tween-80) was 96 % of control, the T/C (dose: 200.0 mg/kg/injection, schedule: Q04DX002 (ip), vehicle: saline with Tween-80) was 93 % of control and the T/C [1] was 93 % of control.
For `CC(C)(NC(=O)c1cc(Cl)c2ccccc2c1O)C(=O)O`, the T/C (dose: 50.0 mg/kg/injection, schedule: Q01DX009 (ip), vehicle: saline + alcohol) was 97 % of control, the T/C (dose: 100.0 mg/kg/injection, schedule: Q01DX009 (ip), vehicle: saline + alcohol) was 94 % of control and the T/C (dose: 200.0 mg/kg/injection, schedule: Q01DX009 (ip), vehicle: saline + alcohol) was 103 % of control.
With `CCC1CCC(=O)NC1=O` (centres undefined) the T/C (dose: 60.0 mg/kg/injection, schedule: Q01DX005 (ip), vehicle: saline with Tween-80) was 103 % of control, the T/C [2] was 103 % of control and the T/C [3] was 98 % of control.
`Cc1nnc2c(=O)n(C)ccn12` was tested, and the T/C [4] was 95 % of control, the T/C [5] was 95 % of control and the T/C [6] was 97 % of control.
For `CNC1CCCc2c(O)cccc21` (centres undefined), the T/C (dose: 50.0 mg/kg/injection, schedule: Q04DX003 (ip), vehicle: Klucel (hydroxypropylcellulose) (HPC)) was 99 % of control and the T/C (dose: 100.0 mg/kg/injection, schedule: Q04DX003 (ip), vehicle: Klucel (hydroxypropylcellulose) (HPC)) was 101 % of control.
In the case of `O=S1(F)=NP(N2CC2)(N2CC2)=NP(N2CC2)(N2CC2)=N1` (centres undefined), the T/C (dose: 5.0 mg/kg/injection, schedule: Q04DX003 (ip), vehicle: saline) was 86 % of control, the T/C (dose: 10.0 mg/kg/injection, schedule: Q04DX003 (ip), vehicle: saline) was 102 % of control and the T/C (dose: 20.0 mg/kg/injection, schedule: Q04DX003 (ip), vehicle: saline) was 86 % of control. For the same compound, the T/C (dose: 40.0 mg/kg/injection, schedule: Q04DX003 (ip), vehicle: saline) was 234 % of control.
In the case of `CC(=O)c1ccc(OCc2ccccc2)c(OCc2ccccc2)c1`, the T/C [7] was 115 % of control, the T/C [8] was 106 % of control and the T/C (dose: 200.0 mg/kg/injection, schedule: Q01DX009 (ip), vehicle: saline with Tween-80) was 95 % of control. For the same compound, the T/C (dose: 400.0 mg/kg/injection, schedule: Q01DX009 (ip), vehicle: saline with Tween-80) was 93 % of control.
For `CN(C)C(=N)N(C)C`, the T/C (dose: 25.0 mg/kg/injection, schedule: Q01DX009 (ip), vehicle: saline with Tween-80) was 100 % of control, the T/C [7] was 100 % of control and the T/C [8] was 95 % of control.
In the case of `CC(=O)Oc1c(C)c(OC(C)=O)c2c(c1C(C)=O)OC1CC(=O)C(C(C)=O)=C(O)C21C` (centres undefined), the T/C (dose: 6.25 mg/kg/injection, schedule: Q01DX009 (ip), vehicle: gum acacia) was 101 % of control and 97 % of control, the T/C (dose: 12.5 mg/kg/injection, schedule: Q01DX009 (ip), vehicle: gum acacia) was 100 % of control and 102 % of control and the T/C (dose: 25.0 mg/kg/injection, schedule: Q01DX009 (ip), vehicle: gum acacia) was 102 % of control. The T/C (dose: 50.0 mg/kg/injection, schedule: Q01DX009 (ip), vehicle: gum acacia) was 101 % of control and 104 % of control and the T/C (dose: 100.0 mg/kg/injection, schedule: Q01DX009 (ip), vehicle: gum acacia) was 94 % of control.
`Cn1c2ccccc2c2nnc(N/N=C/c3cccs3)nc21` was tested, and the T/C [1] was 105 % of control and 91 % of control.
In the case of `COC1=NO[C@@H]2C=CO[C@H]12`, the T/C [9] was 105 % of control, the T/C [10] was 100 % of control and the T/C [11] was 93 % of control.
`Cc1cccc(CCl)n1` was tested, and the T/C [12] was 90 % of control, the T/C [13] was 107 % of control and the T/C [14] was 105 % of control.
In the case of `CC1OC(Nc2ncnc3nc[nH]c23)C(O)C(O)C1NC(=O)CNC(=O)CCCCCCCCCCCC(C)(C)C` (centres undefined), the T/C (dose: 0.25 mg/kg/injection, schedule: Q01DX009 (ip), vehicle: distilled water + Tween-80) was 111 % of control and 117 % of control, the T/C (dose: 0.5 mg/kg/injection, schedule: Q01DX009 (ip), vehicle: distilled water + Tween-80) was 118 % of control and the T/C (dose: 1.0 mg/kg/injection, schedule: Q01DX009 (ip), vehicle: distilled water + Tween-80) was 166 % of control. The T/C (dose: 2.0 mg/kg/injection, schedule: Q01DX009 (ip), vehicle: distilled water + Tween-80) was 117 % of control and the T/C (dose: 4.0 mg/kg/injection, schedule: Q01DX009 (ip), vehicle: distilled water + Tween-80) was 108 % of control and 91 % of control.
In the case of `Cc1nnc(Cc2ccc([N+](=O)[O-])cc2)c2n[nH]c(C)c12`, the T/C (dose: 25.0 mg/kg/injection, schedule: Q01DX001 (ip), vehicle: Klucel (hydroxypropylcellulose) (HPC)) was 104 % of control, the T/C (dose: 50.0 mg/kg/injection, schedule: Q01DX001 (ip), vehicle: Klucel (hydroxypropylcellulose) (HPC)) was 102 % of control and the T/C (dose: 100.0 mg/kg/injection, schedule: Q01DX001 (ip), vehicle: Klucel (hydroxypropylcellulose) (HPC)) was 109 % of control. The T/C (dose: 100.0 mg/kg/injection, schedule: Q04DX002 (ip), vehicle: Klucel (hydroxypropylcellulose) (HPC)) was 90 % of control.
For `COc1ccc(CSC(=S)Nc2cc(C)c(C)cc2[N+](=O)[O-])cc1`, the T/C (dose: 50.0 mg/kg/injection, schedule: Q01DX009 (ip), vehicle: suspension in saline) was 93 % of control, the T/C (dose: 100.0 mg/kg/injection, schedule: Q01DX009 (ip), vehicle: suspension in saline) was 97 % of control and the T/C (dose: 200.0 mg/kg/injection, schedule: Q01DX009 (ip), vehicle: suspension in saline) was 97 % of control.
With `OCC(COCCCCCCCCCCCC1C=CCC1)OCCCCCCCCCCCC1C=CCC1` (centres undefined) the T/C (dose: 100.0 mg/kg/injection, schedule: Q04DX003 (ip), vehicle: saline) was 101 % of control, the T/C (dose: 200.0 mg/kg/injection, schedule: Q04DX003 (ip), vehicle: saline) was 104 % of control and the T/C (dose: 400.0 mg/kg/injection, schedule: Q04DX003 (ip), vehicle: saline) was 104 % of control.
For `CC(C)SC(=S)Nc1ccc(Cl)c(C(F)(F)F)c1`, the T/C [12] was 106 % of control, the T/C [13] was 105 % of control and the T/C [14] was 110 % of control.
With `O=C(NC1CCCCC1)OCc1c(COC(=O)NC2CCCCC2)c2cccn2c2c1cnn2-c1ccccc1` the T/C (dose: 15.0 mg/kg/injection, schedule: Q01DX005 (ip), vehicle: saline with Tween-80) was 93 % of control, the T/C (dose: 30.0 mg/kg/injection, schedule: Q01DX005 (ip), vehicle: saline with Tween-80) was 88 % of control and 89 % of control and the T/C [2] was 92 % of control and 96 % of control. For the same compound, the T/C [3] was 99 % of control.
For `C=C1[C@@H](NC)CC[C@]23C[C@]24CC[C@]2(C)[C@@H]([C@H](C)NC)[C@H](O)C[C@@]2(C)[C@@H]4CC[C@@H]13`, the T/C [4] was 104 % of control, the T/C [5] was 99 % of control and the T/C [6] was 104 % of control.
In the case of `CCc1c2oc(C(=O)c3ccc(Cl)cc3)cc2n2ccccc12`, the T/C (dose: 60.0 mg/kg/injection, schedule: Q01DX005 (ip), vehicle: Klucel + Tween-80) was 89 % of control and the T/C (dose: 120.0 mg/kg/injection, schedule: Q01DX005 (ip), vehicle: Klucel + Tween-80) was 86 % of control.
For `COC(=O)[C@H]1[C@H]2C[C@@H]3c4[nH]c5cc(OC)ccc5c4CCN3C[C@H]2C[C@@H](OC(=O)c2cccc(N)c2)[C@@H]1OC`, the T/C [9] was 101 % of control, the T/C [10] was 97 % of control and the T/C [11] was 97 % of control.
`Cn1c(C(C)(C)OC(=O)Oc2ccccc2)cnc1[N+](=O)[O-]` was tested, and the T/C (dose: 100.0 mg/kg/injection, schedule: Q01DX009 (ip), vehicle: Klucel (hydroxypropylcellulose) (HPC)) was 96 % of control and the T/C (dose: 200.0 mg/kg/injection, schedule: Q01DX009 (ip), vehicle: Klucel (hydroxypropylcellulose) (HPC)) was 100 % of control.
In the case of `CN(C)c1ccc(C=NCCCN=Cc2ccc(N(C)C)cc2)cc1`, the T/C [8] was 104 % of control.
